Tests used:
Type in all cases: binding
panel of 442 kinases [1] = target: T1, panel of 442 kinases (Homo sapiens, UniProt Q9NYL2); settings: kinase ZAK; compound concentration 10 µM
T1 construct: purchased KINOMEscan
Text: (§1) We assessed the selectivity of members of this scaffold using the KINOMEscan methodology across a near comprehensive panel of 442 kinases [[18,27]].

panel of 442 kinases [2] = target: T2, panel of 442 kinases (Homo sapiens, UniProt Q9Y2H9); settings: Compound Concentration 10 µM
T2 construct: purchased KINOMEscan
Text: as §1

panel of 442 kinases [3] = target: T3, panel of 442 kinases (Homo sapiens, UniProt Q9Y4K4); settings: Compound Concentration 10 µM
T3 construct: purchased KINOMEscan
Text: as §1

T3 sequence (Q9Y4K4 whole entry): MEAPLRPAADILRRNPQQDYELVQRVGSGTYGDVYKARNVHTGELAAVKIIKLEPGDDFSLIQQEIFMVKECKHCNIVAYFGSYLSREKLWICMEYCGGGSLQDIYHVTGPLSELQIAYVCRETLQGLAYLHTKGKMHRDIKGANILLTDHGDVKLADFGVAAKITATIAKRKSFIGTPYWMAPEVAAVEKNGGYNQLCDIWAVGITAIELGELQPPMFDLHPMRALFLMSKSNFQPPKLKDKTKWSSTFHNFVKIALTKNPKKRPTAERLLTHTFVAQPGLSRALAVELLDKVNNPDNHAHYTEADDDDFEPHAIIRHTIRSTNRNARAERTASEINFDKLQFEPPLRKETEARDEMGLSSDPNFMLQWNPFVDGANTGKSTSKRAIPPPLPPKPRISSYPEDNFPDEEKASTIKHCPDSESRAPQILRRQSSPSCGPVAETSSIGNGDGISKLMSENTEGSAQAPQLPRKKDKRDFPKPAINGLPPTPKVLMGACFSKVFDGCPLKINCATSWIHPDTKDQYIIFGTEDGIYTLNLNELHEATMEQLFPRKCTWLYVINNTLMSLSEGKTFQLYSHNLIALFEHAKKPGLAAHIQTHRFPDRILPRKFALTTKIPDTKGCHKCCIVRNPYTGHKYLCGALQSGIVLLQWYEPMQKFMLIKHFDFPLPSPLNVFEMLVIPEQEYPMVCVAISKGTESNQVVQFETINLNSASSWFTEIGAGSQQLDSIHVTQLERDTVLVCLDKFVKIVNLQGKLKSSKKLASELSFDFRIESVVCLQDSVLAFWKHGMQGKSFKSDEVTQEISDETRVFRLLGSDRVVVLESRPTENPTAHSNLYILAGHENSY
T2 sequence (Q9Y2H9 whole entry): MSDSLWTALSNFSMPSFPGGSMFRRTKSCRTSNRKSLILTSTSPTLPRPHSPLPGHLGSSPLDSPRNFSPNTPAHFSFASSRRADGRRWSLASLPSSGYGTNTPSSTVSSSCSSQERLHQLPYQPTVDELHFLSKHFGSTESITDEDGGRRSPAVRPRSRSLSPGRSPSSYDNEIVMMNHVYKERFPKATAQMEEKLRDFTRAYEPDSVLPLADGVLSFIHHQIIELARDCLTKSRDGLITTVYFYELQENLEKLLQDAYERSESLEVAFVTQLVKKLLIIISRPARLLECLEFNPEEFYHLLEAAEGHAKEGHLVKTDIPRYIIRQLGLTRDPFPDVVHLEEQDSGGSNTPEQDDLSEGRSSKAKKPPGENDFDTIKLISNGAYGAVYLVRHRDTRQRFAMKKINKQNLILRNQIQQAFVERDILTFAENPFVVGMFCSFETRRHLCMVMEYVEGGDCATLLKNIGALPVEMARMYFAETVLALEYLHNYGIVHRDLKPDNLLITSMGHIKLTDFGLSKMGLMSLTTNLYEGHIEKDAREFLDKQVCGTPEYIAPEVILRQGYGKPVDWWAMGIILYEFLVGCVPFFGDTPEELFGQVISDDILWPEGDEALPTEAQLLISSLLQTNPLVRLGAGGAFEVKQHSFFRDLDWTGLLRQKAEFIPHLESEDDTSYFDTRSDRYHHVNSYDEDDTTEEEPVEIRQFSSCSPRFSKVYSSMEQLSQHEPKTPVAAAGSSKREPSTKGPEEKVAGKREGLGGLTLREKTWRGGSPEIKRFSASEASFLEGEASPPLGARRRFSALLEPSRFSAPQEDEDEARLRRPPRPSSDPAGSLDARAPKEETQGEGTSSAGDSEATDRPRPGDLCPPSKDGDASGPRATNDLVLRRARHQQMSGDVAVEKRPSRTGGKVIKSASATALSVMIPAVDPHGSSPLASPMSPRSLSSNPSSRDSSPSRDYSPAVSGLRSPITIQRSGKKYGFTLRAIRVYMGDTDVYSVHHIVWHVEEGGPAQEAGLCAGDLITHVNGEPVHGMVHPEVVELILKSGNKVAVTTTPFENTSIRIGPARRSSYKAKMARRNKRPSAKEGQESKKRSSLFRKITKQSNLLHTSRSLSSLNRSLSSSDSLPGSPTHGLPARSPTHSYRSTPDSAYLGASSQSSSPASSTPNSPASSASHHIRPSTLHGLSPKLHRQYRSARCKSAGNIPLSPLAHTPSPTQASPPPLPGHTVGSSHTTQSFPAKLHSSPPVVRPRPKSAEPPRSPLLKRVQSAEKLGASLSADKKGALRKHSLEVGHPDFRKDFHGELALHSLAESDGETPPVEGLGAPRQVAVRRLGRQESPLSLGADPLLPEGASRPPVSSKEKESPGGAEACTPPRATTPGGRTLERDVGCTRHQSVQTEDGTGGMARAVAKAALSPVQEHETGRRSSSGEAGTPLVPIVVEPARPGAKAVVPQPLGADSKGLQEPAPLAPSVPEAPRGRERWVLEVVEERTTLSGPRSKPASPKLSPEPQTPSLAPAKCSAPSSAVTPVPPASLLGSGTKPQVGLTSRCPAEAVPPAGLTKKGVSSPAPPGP
T1 sequence (Q9NYL2 whole entry): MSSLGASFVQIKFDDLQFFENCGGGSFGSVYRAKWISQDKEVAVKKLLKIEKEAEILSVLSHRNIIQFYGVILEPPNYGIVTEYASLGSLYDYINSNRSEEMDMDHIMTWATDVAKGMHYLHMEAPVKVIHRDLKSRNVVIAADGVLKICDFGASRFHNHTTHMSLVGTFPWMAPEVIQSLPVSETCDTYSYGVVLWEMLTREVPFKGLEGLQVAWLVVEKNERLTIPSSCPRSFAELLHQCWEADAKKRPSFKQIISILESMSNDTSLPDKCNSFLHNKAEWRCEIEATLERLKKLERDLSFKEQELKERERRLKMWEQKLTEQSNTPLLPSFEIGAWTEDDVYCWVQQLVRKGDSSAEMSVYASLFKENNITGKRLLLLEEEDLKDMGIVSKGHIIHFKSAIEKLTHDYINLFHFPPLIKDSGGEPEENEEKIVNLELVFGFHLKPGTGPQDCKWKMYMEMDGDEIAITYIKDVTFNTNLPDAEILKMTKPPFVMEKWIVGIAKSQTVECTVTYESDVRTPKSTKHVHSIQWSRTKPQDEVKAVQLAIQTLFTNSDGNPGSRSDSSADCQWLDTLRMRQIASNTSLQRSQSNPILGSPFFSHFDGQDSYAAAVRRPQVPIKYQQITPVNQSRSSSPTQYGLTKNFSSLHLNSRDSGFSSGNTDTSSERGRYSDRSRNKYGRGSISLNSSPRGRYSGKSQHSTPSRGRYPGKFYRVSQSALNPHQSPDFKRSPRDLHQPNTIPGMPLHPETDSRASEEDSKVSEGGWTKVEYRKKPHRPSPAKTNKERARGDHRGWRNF

COc1cc(C(=O)N2CCC(N3CCN(C)CC3)CC2)ccc1Nc1ncc2c(n1)N1CCc3cccc(c31)C(=O)N2C [Compound 24]
% Ctrl, ZAK (panel of 442 kinases [1]): 88 % Ctrl | KINOMEscan: MAST1 (panel of 442 kinases [2]): 73 | KINOMEscan: MAP4K5 (panel of 442 kinases [3]): 72

CCOc1cc(C(=O)N2CCC(N3CCN(C)CC3)CC2)ccc1Nc1ncc2c(n1)N(C1CCCC1)c1ccccc1C(=O)N2C [Compound 26]
% Ctrl, ZAK (panel of 442 kinases [1]): 100 % Ctrl | KINOMEscan: MAST1 (panel of 442 kinases [2]): 100 | KINOMEscan: MAP4K5 (panel of 442 kinases [3]): 95

COc1cc(C(=O)N2CCC(N3CCN(C)CC3)CC2)ccc1Nc1ncc2c(n1)N(C1CCCC1)c1ccccc1C(=O)N2C [Compound 25, 11-cyclopentyl-2-((2-methoxy-4-(4-(4-methylpiperazin-1-yl)piperidine-1-carbonyl)phenyl)amino)-5-methyl-5H-benzo[e]pyrimido[5,4-b][1,4]diazepin-6(11H)-one]
% Ctrl, ZAK (panel of 442 kinases [1]): 100 % Ctrl | KINOMEscan: MAST1 (panel of 442 kinases [2]): 78 | KINOMEscan: MAP4K5 (panel of 442 kinases [3]): 96

COc1cc(C(=O)N2CCC(N3CCN(C)CC3)CC2)ccc1Nc1ncc2c(n1)N(C)c1ccccc1C(=O)N2C [15 (LRRK2-IN-1)]
% Ctrl, ZAK (panel of 442 kinases [1]): 99 % Ctrl | KINOMEscan: MAST1 (panel of 442 kinases [2]): 100 | KINOMEscan: MAP4K5 (panel of 442 kinases [3]): 100

Reference: publication PMC3914206
